Measurements as given in the supplement of paper PMC10307832.

Tests used:
Experiment in all cases: relative viability (nuclei count vs DMSO), 5 days (fraction); higher = more cells survive
[1] = compound: Nc1ccn([C@@H]2O[C@H](CO)[C@@H](O)C2(F)F)c(=O)n1 [Gemcitabine] + N=C(N)NC(=N)NCCc1ccccc1 [Phenformin] (partner 250 µM)
Method in brief: (§1)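 Cells from lung cancer lines were seeded into 1536-well plates and, one day later, dosed by pin tool. Treatments were either a single drug or a fixed dose of an anchor drug with five library-drug doses (not always all listed) in √10 steps. After 5 days, nuclei were stained in a one-step fixation (final 0.05% Triton X-100, 1% formaldehyde, 1 ug/ml Hoechst) and counted on 4× images, and relative viability is the treated-to-vehicle nuclei ratio, as the median of duplicate plates.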

[2] = compound: Nc1ccn([C@@H]2O[C@H](CO)[C@@H](O)C2(F)F)c(=O)n1 [Gemcitabine] + NC(=O)Nc1cc(-c2cccc(F)c2)sc1C(=O)N[C@H]1CCCNC1 [AZD7762] (partner 0.2 µM)
Method in brief: as §1

[3] = compound: Nc1ccn([C@@H]2O[C@H](CO)[C@@H](O)C2(F)F)c(=O)n1 [Gemcitabine] + Cc1nc(NC(=O)N2CCC[C@H]2C(N)=O)sc1-c1ccnc(C(C)(C)C(F)(F)F)c1 [Alpelisib] (partner 2 µM)
Method in brief: as §1

[4] = compound: Nc1ccn([C@@H]2O[C@H](CO)[C@@H](O)C2(F)F)c(=O)n1 [Gemcitabine] + CS(=O)(=O)N1CCN(Cc2cc3nc(-c4cccc5[nH]ncc45)nc(N4CCOCC4)c3s2)CC1 [Pictilisib] (partner 1 µM)
Method in brief: as §1

Cell Line | relative viability ([1]; first compound 0.001 µM) | relative viability ([1]; first compound 0.003162 µM) | relative viability ([1]; first compound 0.01 µM) | relative viability ([1]; first compound 0.03162 µM) | relative viability ([1]; first compound 0.1 µM) | relative viability ([2]; first compound 0.001 µM) | relative viability ([2]; first compound 0.003162 µM) | relative viability ([2]; first compound 0.01 µM) | relative viability ([2]; first compound 0.03162 µM) | relative viability ([2]; first compound 0.1 µM) | relative viability ([3]; first compound 0.001 µM) | relative viability ([3]; first compound 0.003162 µM) | relative viability ([3]; first compound 0.01 µM) | relative viability ([3]; first compound 0.03162 µM) | relative viability ([3]; first compound 0.1 µM) | relative viability ([4]; first compound 0.001 µM) | relative viability ([4]; first compound 0.003162 µM) | relative viability ([4]; first compound 0.01 µM) | relative viability ([4]; first compound 0.03162 µM) | relative viability ([4]; first compound 0.1 µM)
NCI-H441 | 0.808 | 0.552 | 0.269 | 0.204 | 0.176 | 0.603 | 0.134 | 0.11 | 0.165 | 0.128 | 0.602 | 0.327 | 0.138 | 0.149 | 0.12 | 0.521 | 0.343 | 0.196 | 0.109 | 0.126
NCI-H460 | 0.589 | 0.565 | 0.0724 | 0.0156 | 0.0098 | 0.831 | 0.48 | 0.0469 | 0.026 | 0.0247 | 0.684 | 0.484 | 0.0473 | 0.0144 | 0.0066 | 0.37 | 0.328 | 0.0742 | 0.0745 | 0.0388
NCI-H596 | 0.74 | 0.612 | 0.489 | 0.262 | 0.306 | 1.24 | 0.717 | 0.275 | 0.319 | 0.235 | 0.489 | 0.454 | 0.345 | 0.329 | 0.194 | 0.369 | 0.436 | 0.438 | 0.335 | 0.293
NCI-H647 | 0.334 | 0.144 | 0.058 | 0.0604 | 0.0397 | 0.098 | 0.0427 | 0.0235 | 0.0216 | 0.0238 | 1.08 | 0.174 | 0.0715 | 0.0975 | 0.0551 | 0.304 | 0.163 | 0.0953 | 0.0685 | 0.0658
NCI-H650 | 0.387 | 0.255 | 0.202 | 0.158 | 0.168 | 0.359 | 0.172 | 0.204 | 0.186 | 0.161 | 0.816 | 0.486 | 0.179 | 0.177 | 0.159 | 0.918 | 0.502 | 0.246 | 0.166 | 0.166
NCI-H727 | 0.46 | 0.448 | 0.348 | 0.419 | 0.322 | 0.545 | 0.45 | 0.389 | 0.311 | 0.403 | 0.412 | 0.311 | 0.199 | 0.221 | 0.212 | 0.552 | 0.459 | 0.304 | 0.216 | 0.211
NCI-H838 | 0.634 | 0.675 | 0.521 | 0.19 | 0.0985 | 0.93 | 0.886 | 0.648 | 0.565 | 0.616 | 1.05 | 1.17 | 1.14 | 0.557 | 0.169 | 0.476 | 0.501 | 0.468 | 0.346 | 0.141
NCI-H1355 | 0.444 | 0.297 | 0.214 | 0.202 | 0.178 | 0.434 | 0.196 | 0.112 | 0.163 | 0.132 | 0.756 | 0.569 | 0.135 | 0.156 | 0.116 | 0.409 | 0.343 | 0.202 | 0.127 | 0.124
